How the values were obtained:
Type in all cases: cell-based
human atrial trabeculae [1] = assay: Developed force of human atrial trabeculae exposed to exogenous TNFα, with or without IL-18BP; conditions: TNFα 1 ng/ml alone; after 90 minutes; n=5
Procedure: TNFα and IL-18BP were added to each bath change.
(§1) Isolated Atrial Trabeculae Patients undergoing elective coronary artery bypass surgery with a pump oxygenator require insertion of a canula into the right atrium. At that time, a small segment of the right atrial appendage is routinely excised and discarded. Trabeculae were obtained from this discarded tissue. Human atrial tissue was placed in oxygenated modified Tyrode's buffer solution at 4° C. Modified Tyrode's solution was prepared daily with deionized distilled water and contained D-glucose at 5.0 mmol/liter, CaCl2 at 2.0 mmol/liter, NaCl at 118.0 mmol/liter, KCl at 4.0 mmol/liter, MgSO4.7H2O at 1.2 mmol/liter, NaHCO3 at 25.0 mmol/liter, and NaH2PO4 at 1.2 mmol/liter. The substrate-free Tyrode's solution contained choline chloride at 7 mmol/liter to maintain osmolarity. Unless otherwise indicated, chemicals and reagents were obtained from Sigma. […]
(§2) Experimental Design Trabeculae were equilibrated for 90 min to increase the baseline stretch force to 1,000 mg and to allow stabilization of developed force. […] Contractions were monitored by force transducers (Grass FT03) and recorded with a computerized preamplifier and digitizer (MacLab Quad Bridge, MacLab/8e, AD Instruments, Milford, Mass.) and continuously monitored with a Macintosh computer.

human atrial trabeculae [2] = assay: Tissue creatine kinase (CK) activity in trabeculae exposed to TNFα, with or without IL-18BP; conditions: 90 minutes of TNFα exposure alone; n=6; control 6801±276
Procedure: CK activity is expressed in units of CK activity per milligram of wet tissue weight. (n=6).
Preserved Trabecular CK Activity End reperfusion tissue (90 min) CK activity was determined as described (Kaplan et al., 1993). Tissues were homogenized in 100 vol of ice-cold isotonic extraction buffer (Cleveland et al., 1997, Kaplan et al., 1993). The assay was performed with a CK kit (Sigma) by using an automated spectrophotometer. Results are presented as units of CK activity per mg (wet weight of tissue).
Casases are often associated with apoptosis. To assess cellular viability in trabeculae exposed to TNFα, tissue intracellular creatine kinase (CK) was measured. In this assay, high CK levels indicate viable cells. As depicted in FIG. 8, control trabeculae which underwent 90 minutes of normoxic superfusion, contained 6801±276 units of CK activity per milligram of wet tissue weight. […] Trabeculae exposed to TNFα in the presence of IL-18BP contained 5605±212 units/mg of tissue. […] This was an unexpected finding since the magnitude of developed force at the end of the experimental period was similar for I/R and TNFα.

human atrial trabeculae [3] = assay: Developed force of human atrial trabeculae exposed to exogenous IL-18 under normoxic conditions
Procedure: Mature IL-18 (100 ng/ml) were added to atrial trabeculae throughout the 90 min experimental period. The vertical axis indicates the mean percent change from baseline developed force. The baseline was determined at the end of the equilibration period (not shown). (n=6). *P<0.05, **P<0.001 as compared to control at the same interval and for the remainder of the experimental period.
Isolated Atrial Trabeculae Patients undergoing elective coronary artery bypass surgery with a pump oxygenator require insertion of a canula into the right atrium. At that time, a small segment of the right atrial appendage is routinely excised and discarded. Trabeculae were obtained from this discarded tissue. Human atrial tissue was placed in oxygenated modified Tyrode's buffer solution at 4° C. […]
as §2
Next, the direct effect of exogenous IL-18 on myocardial contractile function was determined. […]

human atrial trabeculae [4] = assay: Ischemia/reperfusion of suprafused human atrial trabeculae: postischemic developed force; conditions: N=7, I/R alone 35%
Procedure: as §1, with “mmol/liter.” for “mmol/liter. The substrate-free Tyrode's solution contained choline chloride at 7 mmol/liter to maintain osmolarity. Unless otherwise indicated, chemicals and reagents were obtained from Sigma.”
Experimental Design Trabeculae were equilibrated for 90 min to increase the baseline stretch force to 1,000 mg and to allow stabilization of developed force. […] Contractions were monitored by force transducers (Grass FT03) and recorded with a computerized preamplifier and digitizer (MacLab Quad Bridge, MacLab/8e, AD Instruments, Milford, Mass.) and continuously monitored with a Macintosh computer. […]
Statisical Analysis Data are expressed as the mean±SEM. Mean changes in developed force were calculated relative to the control value at 90 min for each patient's tissue. Statistical significance of differences between groups were determined by factorial ANOVA with Bonferroni-Dunn post hoc analysis. […]

[5] = tested on: human peripheral blood mononuclear cells; assay: Endotoxin-induced secretion of mature IL-1β by peripheral blood mononuclear cells (ELISA)
Procedure: Reagents IL-18BPa isoform was expressed with a N-terminal (His)6 tag in Chinese hamster ovary cells and purified to homogeneity. The ability of IL-18BPa-(His)6 to neutralize IL-18 has been described (Kim et al., 2000). The ICE inhibitor (ICEi) Ac-Try-Val-Ala-Asp-chloromethylketone (YVAD) was purchased from Alexis Biochemicals (San Diego) and solubililized in DMSO at 10 mg/ml. The ICEi was diluted in Tyrode's solution before being used. On human peripheral blood mononuclear cells, the ICEi reduces endotoxin-induced secretion of mature IL-1β by 92%, as measured by ELISA (Cistron Biotechnology, Pine Brook, NJ).

TNFα
decrease in developed force compared to control (human atrial trabeculae [1]): 58%
preserved tissue CK activity (human atrial trabeculae [2]): 3246±217 units/mg

IL-18: exogenous mature IL-18 added to atrial trabeculae
decrease in developed force (human atrial trabeculae [3]; IL-18 100 ng/ml, 90 minutes continuous exposure, normoxic, n=6): 42%
potency as myocardial depressant compared with TNFα (human atrial trabeculae [3]; human atrial trabeculae): not as potent a myocardial depressant as is TNFα

Ac-Try-Val-Ala-Asp-chloromethylketone [ICEi]
postischemic contractile function, percent of control (human atrial trabeculae [4]; ICEi 10 μg/ml): 60%
postischemic contractile function, percent of control (human atrial trabeculae [4]; ICEi 20 μg/ml): 75.8%
reduction of endotoxin-induced secretion of mature IL-1β [5]: 92%

Reference: patent publication US20040234523A1, “Use of IL-18 inhibitors for the treatment and/or prevention of heart disease” (priority 2001, published 2004)
